Structures are written as SMILES. Converted amounts (≈) assume the structure as drawn.

As a reminder, the solubility is how much of the substance goes into solution per volume. A higher solubility goes with a readily soluble substance. Regarding `Clc1ccc(C(c2ccc(Cl)cc2)C(Cl)(Cl)Cl)cc1`, the solubility (25 °C) amounted to 1.55e-05 mM (≈ 0.0055 µg/mL).
`CN1CCN(CCCN2c3ccccc3Sc3ccc(Cl)cc32)CC1` displayed a solubility (24 °C) of 0.04 mM (≈ 15 µg/mL).
Consider `O=[N+]([O-])c1cccc(Cl)c1Cl`, for which, for the setting “20 °C”, the solubility worked out at 0.325 mM (≈ 62.4 µg/mL).
Where the note is “20 °C”, `BrCCCBr` showed a solubility of 8.42 mM (≈ 1700 µg/mL).
Compound `CCC(C)CC` showed a solubility (25 °C) of 0.208 mM (≈ 17.9 µg/mL).
With `CC(Oc1cc(Cl)c(Cl)cc1Cl)C(=O)O` (stereo not drawn), the solubility (23 °C) was found to be 0.341 mM (≈ 92 µg/mL).
For the compound `CCCCCC(=O)O`, the solubility (25 °C) was 88.7 mM (≈ 10300 µg/mL).
With `CCNc1nc(NC(C)(C)C)nc(SC)n1`, the solubility (20 °C) came out at 0.104 mM (≈ 25 µg/mL).
As for `O=Cc1ccccc1`, for the setting “25 °C”, the solubility came to 61.9 mM (≈ 6570 µg/mL).
The same measure, in the same setting: then `CC[N+](=O)[O-]`, with 626 mM (≈ 47000 µg/mL).
`O=[N+]([O-])c1cccc(Cl)c1` yielded a solubility (20 °C) of 1.73 mM (≈ 273 µg/mL).
As to `CC[C@H](C)[C@H](N)C(=O)O` (racemic), the solubility (24 °C) is 262 mM (≈ 34400 µg/mL).
As for `CCCCCCCCCCCCCCCCO`, the solubility (25 °C) worked out at 9.69e-05 mM (≈ 0.0235 µg/mL).
For the compound `COP(=S)(OC)SCC(=O)N(C)C=O`, where the note is “24 °C”, the solubility was determined as 10.1 mM (≈ 2600 µg/mL).
Regarding `Clc1ccc(Cl)cc1`, the solubility (25 °C) was 0.553 mM (≈ 81.3 µg/mL).
With `O=C(O)c1ccccc1C(=O)O`, for the setting “25 °C”, the solubility was found to be 42.1 mM (≈ 6990 µg/mL).
`CCNC(=O)CSP(=S)(OC)OC` displayed a solubility (25 °C) of 34.9 mM (≈ 8500 µg/mL).
As to `CCOP(=S)(OCC)SCC(=O)NC(C)C`, for the setting “20 °C”, the solubility turned out to be 8.76 mM (≈ 2500 µg/mL).
The compound `CNC(=O)Oc1cc(C(C)(C)C)cc(C(C)(C)C)c1` had a solubility (20 °C) of 0.057 mM (≈ 15 µg/mL).
For the setting “20 °C”, `c1ccc(Nc2ccccc2)cc1` returned a solubility of 0.313 mM (≈ 53 µg/mL).
On to `CC(C)Br`, for which the solubility (20 °C) amounted to 24.6 mM (≈ 3020 µg/mL).
As to `Cc1ccc2cc3c(ccc4ccccc43)cc2c1`, the solubility (24 °C) stood at 0.000153 mM (≈ 0.037 µg/mL).
Consider `CC12CCC(CC1=O)C2(C)C` (stereo not drawn), for which the solubility (25 °C) came out at 2.63 mM (≈ 400 µg/mL).
For the setting “20 °C”, `Cc1cc(O)cc(C)c1Cl` displayed a solubility of 1.6 mM (≈ 250 µg/mL).
With `Nc1ccc(C(=O)O)cc1`, the solubility (30 °C) is 44.6 mM (≈ 6110 µg/mL).
`CCNc1nc(NC(C)C)nc(SC)n1` yielded a solubility (25 °C) of 0.919 mM (≈ 209 µg/mL).
Compound `O=[N+]([O-])C(Br)(CO)CO` came in with a solubility (22 °C) of 1250 mM (≈ 250000 µg/mL).
Regarding `Cn1c(=O)c2[nH]cnc2n(C)c1=O`, the solubility (25 °C) stood at 40.9 mM (≈ 7360 µg/mL).
As for `CCCCCCC(C)=O`, the solubility (20 °C) amounted to 7.02 mM (≈ 900 µg/mL).
Take `CCN(CC)c1c([N+](=O)[O-])cc(C(F)(F)F)c(N)c1[N+](=O)[O-]`: the solubility (25 °C) was determined as 0.00341 mM (≈ 1.1 µg/mL).
The same measure, in the same setting: then `CCCCCCCCC=O`, with 0.675 mM (≈ 96 µg/mL); and `CC(C)OC(=O)Nc1ccccc1`, with 0.999 mM (≈ 179 µg/mL).
Still for that read-out and setting: the figure for `Cc1ccc(O)cc1` is 199 mM (≈ 21500 µg/mL).
As to `O=C1OC(c2ccc(O)cc2)(c2ccc(O)cc2)c2ccccc21`, the solubility turned out to be 1.26 mM (≈ 400 µg/mL).
Under “25 °C”, `OC(O)C(Cl)(Cl)Cl` had a solubility of 4790 mM (≈ 793000 µg/mL).
`Oc1cccc(O)c1O` gave a solubility (25 °C) of 4020 mM (≈ 507000 µg/mL).
Turning to `O=C(O)c1cccnc1C(=O)O`, the solubility (25 °C) came out at 65.8 mM (≈ 11000 µg/mL).
On to `CCCC(C)(COC(N)=O)COC(N)=O`, for which, where the note is “25 °C”, the solubility stood at 21.5 mM (≈ 4700 µg/mL).
Under “20 °C”, `CC(=O)OC(C)=O` displayed a solubility of 1180 mM (≈ 120000 µg/mL).
The compound `Nc1ccc2ccccc2c1` showed a solubility (25 °C) of 1.32 mM (≈ 189 µg/mL).
In the case of `CCOP(=S)(OCC)Oc1nc(Cl)c(Cl)cc1Cl`, the solubility (24 °C) amounted to 0.00319 mM (≈ 1.12 µg/mL).
`CCCBr`: the solubility (20 °C) worked out at 19.9 mM (≈ 2450 µg/mL).
Where the note is “25 °C”, `c1ccc(-c2ccccc2)cc1` showed a solubility of 0.045 mM (≈ 6.94 µg/mL).
As for `C1=CCCCC1`, the solubility (25 °C) amounted to 2.59 mM (≈ 213 µg/mL).
The same measure, in the same setting: then `Cn1cnc2c1c(=O)[nH]c(=O)n2C`, with 1.83 mM (≈ 330 µg/mL).
For the setting “25 °C”, `CCOC(=O)c1ccc(O)cc1` came in with a solubility of 4.91 mM (≈ 816 µg/mL).
`C#C` displayed a solubility (20 °C) of 46.1 mM (≈ 1200 µg/mL).
As to `Cc1cccc(O)c1`, the solubility (25 °C) was determined as 210 mM (≈ 22700 µg/mL).
Take `O=C(Nc1cccc(Cl)c1)OCC#CCCl`: the solubility (25 °C) is 0.0426 mM (≈ 11 µg/mL).
Under “25 °C”, `CCCCCCCO` showed a solubility of 14.4 mM (≈ 1670 µg/mL).
Consider `NC(=O)NC1NC(=O)NC1=O` (stereo not drawn), for which the solubility worked out at 33.3 mM (≈ 5260 µg/mL).
The compound `ClC(Cl)=C(c1ccc(Cl)cc1)c1ccc(Cl)cc1` had a solubility (25 °C) of 0.000126 mM (≈ 0.04 µg/mL).
On to `CCOCCOC(C)=O`, for which the solubility (20 °C) came out at 1870 mM (≈ 247000 µg/mL).
In turn, `C[C@]12CC[C@H]3[C@@H](CCC4=CC(=O)CC[C@@H]43)[C@@H]1CC[C@@H]2O` displayed a solubility (25 °C) of 11.3 mM (≈ 3090 µg/mL).
In the case of `ClC1(Cl)C2(Cl)C3(Cl)C4(Cl)C(Cl)(Cl)C5(Cl)C3(Cl)C1(Cl)C5(Cl)C24Cl` (stereo not drawn), where the note is “25 °C”, the solubility is 0.000156 mM (≈ 0.085 µg/mL).
For the setting “30 °C”, `CCC1(c2ccccc2)CCC(=O)NC1=O` (stereo not drawn) had a solubility of 4.6 mM (≈ 999 µg/mL).
As to `CCC1(CCC(C)C)C(=O)NC(=O)NC1=O`, the solubility (25 °C) is 2.67 mM (≈ 603 µg/mL).
For `CC(C)(C)NCC(O)c1ccc(O)c(CO)c1` (stereo not drawn), the solubility was 59.3 mM (≈ 14200 µg/mL).
Where the note is “20 °C”, `C#CC(C)OC(=O)Nc1cccc(Cl)c1` (stereo not drawn) gave a solubility of 2.41 mM (≈ 540 µg/mL).
Consider `N[C@@H](Cc1c[nH]c2ccccc12)C(=O)O`, for which, under “25 °C”, the solubility came to 65.6 mM (≈ 13400 µg/mL).
The compound `C[C@]12CCC(=O)C=C1CC[C@@H]1[C@@H]2CC[C@@]2(C)[C@H]1CC[C@]2(C)O` yielded a solubility (25 °C) of 0.112 mM (≈ 33.9 µg/mL).
For the setting “22 °C”, `N[C@@H](Cc1ccccc1)C(=O)O` (racemic) yielded a solubility of 134 mM (≈ 22100 µg/mL).
For the setting “25 °C”, `Oc1ncnc2[nH]ncc12` came in with a solubility of 4.18 mM (≈ 569 µg/mL).
The compound `CCCCc1ccccc1` returned a solubility (25 °C) of 0.0879 mM (≈ 11.8 µg/mL).
`CC(C)(C)C`: the solubility (25 °C) is 0.46 mM (≈ 33.2 µg/mL).
Consider `S=C=S`, for which the solubility (20 °C) came out at 15.5 mM (≈ 1180 µg/mL).
With `CCCCC(=O)O`, the solubility (25 °C) was 384 mM (≈ 39200 µg/mL).
On the same count and under the same terms, the figure for `COc1cc(Cl)c(OC)cc1Cl` is 0.0386 mM (≈ 8 µg/mL).
As for `CCOC(=O)c1ccc(N)cc1`, the solubility (30 °C) is 7.93 mM (≈ 1310 µg/mL).
The compound `Nc1ccccc1` came in with a solubility (25 °C) of 387 mM (≈ 36000 µg/mL).
Turning to `O=[N+]([O-])c1ccc(Cl)cc1`, the solubility (20 °C) came to 1.43 mM (≈ 225 µg/mL).
Consider `Nc1nc(N)nc(N)n1`, for which the solubility (20 °C) came to 25.6 mM (≈ 3230 µg/mL).
Consider `O=C(O)c1cccc([N+](=O)[O-])c1`, for which the solubility (25 °C) was determined as 21.4 mM (≈ 3580 µg/mL).
`O=[N+]([O-])c1ccc(Cl)c(Cl)c1` registered a solubility (20 °C) of 0.63 mM (≈ 121 µg/mL).
Turning to `CCCCC(C)=O`, the solubility (20 °C) worked out at 175 mM (≈ 17500 µg/mL).
With `CC(C)C[C@H](N)C(=O)O`, the solubility (25 °C) turned out to be 141 mM (≈ 18500 µg/mL).
`O=Cc1ccco1`: the solubility (25 °C) was found to be 801 mM (≈ 77000 µg/mL).
On to `CC1(C)C(=O)N(Cl)C(=O)N1Cl`, for which, under “20 °C”, the solubility stood at 2.54 mM (≈ 500 µg/mL).

For the origin of these results see the OPERA property sets (Mansouri et al. 2018).
